Test results published in patent publication US11865102B2, “Cannabidiol preparations and its uses” (GW Research Limited, priority 2018, dated 2024).
Like-named read-outs stand apart in the source and are kept apart here.

What was measured:
[1] = tested on: human iPSC-derived cerebral cortical neural stem cells (hNSCs); assay: Neurogenesis and neuronal differentiation of hNSCs (MAP2 immunocytochemistry); format: cell-based; conditions: 0.1 and 1 μM, 3 or 5 days
Experimental: Human iPSC-derived cerebral cortical neural stem cells (hNSCs) (Axol Bioscience Inc., UK) were cultured as monolayers at a density of 1.010^4 cells/cm^2 on 100 mm diameter Petri dishes. The cells were collected from their original cryovial, suspended in Plating-XF Medium and plated on Petri dishes coated with SureBondXF 1× working solution prepared in D-PBS (without calcium or magnesium). hNSCs were incubated at 37° C. and 5% CO2 and 24 hours after of incubation, the plating medium was replaced with fresh Neural Expansion-XF Medium supplemented with the growth factors Recombinant Human EGF and Recombinant Human FGF2 (final concentration of 20 ng/mL (1×) of FGF2 and EGF). The cultures were re-fed with fresh Neural Expansion-XF supplemented with EGF and FGF2 every two days. When the hNSCs reached approximately 80% confluence, they were prepared for treatment. […]
Digital Leica LAS AF 2.2.0 software (Live Data Mode system) was used for counting Map2ab+DAPI+ cells. […] For each experimental condition, cells from 3 different tubes were each analyzed in triplicate and 3 frames were collected at 20× magnification. Data were analyzed with GraphPad Prism 6 software, version 6.05 (GraphPad, Inc.) and are expressed as mean±SEM. Statistical differences among groups were determined by two-way ANOVA followed by post hoc Bonferroni tests for comparison among means. […]

[2] = tested on: MES-induced tonic seizures; assay: Maximal electroshock seizure (MES) test; format: in vivo; conditions: Mus musculus, ip, i.p. 60 minutes prior to MES, male C57Bl6 mice, sigmoidal curve, constant top, read-out: ED50 protecting 50% of mice against MES-induced tonic seizures
Experimental: This study was performed using male C57Bl6 mice, weighing between 23.6-31.2 g, which were purchased from a licensed breeder (Charles River, UK). Naïve mice were acclimatized to the procedure room in their home cages, with food and water available ad libitum. Animals were housed in groups of 2-3, in standard caging on a 12 hr/12 hr light-dark cycle. All animals were tail marked and weighed at the beginning of the study. Animals were randomly assigned to vehicle or treatment groups.
The following drugs were used in this study: synthetic CBD (SYN) and botanically derived purified CBD (BOT). The control vehicle used was (1:1:18), which was 5% Ethanol, 5% Kolliphor, 90% saline, and has been used extensively throughout similar seizure tests. All drugs were dissolved in the control vehicle for comparison. Animals were dosed (10 ml/kg) i.p. at 60 minutes prior to the administration of the maximal electroshock seizure (IVIES) test. In addition to the vehicle group, the dosage groups used for each treatment and included doses of 10, 50, 100 (Experiment 1 only), 150 and 200 mg/kg for CBD (SYN) and CBD (BOT). The number of animals in each of these groups were 10 (n=10).
Two separate experiments were undertaken using two different batches of the botanically derived purified CBD. […]

[3] = tested on: sub-chronic PCP-induced deficit in novel object recognition; assay: Novel object recognition (NOR) test after sub-chronic PCP; format: in vivo; conditions: rat dose multiplied by 0.16 (FDA dose conversion guidance)
Experimental: Female hooded-Lister rats were used for this experiment. Rats were housed in groups of 5 under standard laboratory conditions under a 12 hr light: dark cycle, with lights on at 0700 hr. Testing was carried out in the light phase. Rats were randomly assigned to two treatment groups and treated with vehicle, n=20 (distilled water, i.p.) or Phencyclidine hydrochloride (PCP), n=100 (2 mg/kg, i.p. twice daily for 7-days). PCP was dissolved in distilled water. This was followed by a 7-day wash out period before the rats were tested following acute treatment with CBD, risperidone or vehicle. […]
Following the 3 minute habituation period, the rats are given two 3 minute trials (T1 and T2) which were separated by a 1 minute inter-trial interval in the home cage during which the objects were changed. Behavior in all trials was recorded on video for subsequent blind scoring. […]
The exploration time(s) of each object (A, B, familiar and novel) in each trial were recorded using two stopwatches and the following factors were calculated: total exploration time of both objects in the acquisition trial, total exploration time of both objects in the retention trial. Habituation of exploratory activity included the exploration time, as measured by the number of lines crossed, for both trials.
All data were assessed for normality using D'Agostino and Pearson normality test. […]

C=C(C)[C@@H]1CCC(C)=C[C@H]1c1c(O)cc(CCCCC)cc1O [Synthetic CBD, 2-[(1R,6R)-3-Methyl-6-(1-methylethenyl)-2-cyclohexen-1-yl]-5-pentyl-1,3-benzenediol]
Effect on neurogenesis and neuronal differentiation of hNSCs relative to vehicle-treated cells [1]: did not have a significant effect
ED50 ([2]; Experiment 1): 77.6 mg/kg
ED50 ([2]; Experiment 2): 77.4 mg/kg
Human equivalent of the rat MED [3]: 1.6 mg/kg/day
